For assay [1], the system named is corn plants (variety NK OCTET). Put plainly: Reduced plant water use in corn (foliar spray, repeated weighing of pots). Format: in vivo. The note with it: Zea mays, corn plants sprayed at 500 μM, average of 6 pots. On the procedure:
Compounds were tested for their effect on reducing plant water use as follows. The compounds were applied by foliar spray to 12 day old corn plants (variety NK OCTET) grown in controlled environment plant growth chambers. All compounds were applied using an emulsifiable concentrate (EC) formulation that was diluted to the desired concentrations with water containing 0.4% of the adjuvant rape seed methyl ester. Plant water use during the day was assessed by repeated weighing of the pots in which the plants were grown before and after application of the compounds at the indicated times (expressed in days after application (DAA)). The water use data before application was used to correct any differences in water use arising due to non-treatment effects (e.g. due to differences in plant size). The untransformed water use values were subjected to an analysis of covariance, fitting the effect of treatment and using the baseline water use 1 day before application as a covariate. Application of the chemicals (0 DAA) takes place approximately between 08:00 and 09:30 a.m. WU is measured within day time (chamber light is on 06:00 to 20:00) at these timepoints: 0 DAA a.m. (10:30-12:50), 0 DAA p.m. (14:00-19:50), 1 DAA a.m. (07:30-12:50), 1 DAA p.m. (14:00-19:50), 2 DAA a.m. (07:30-12:50) and 2 DAA p.m. (14:00-19:50). The cumulative total WU (0-2.5 DAA) is calculated by summing the WU data mentioned above.

Assay [2] has as its system soybean plants (variety S20-G7). Kind of assay: Reduced plant water use in soybean (foliar spray, repeated weighing of pots). The following applies: vs negative control; for change in vivo at 500 µM: Glycine max, foliar, Table B1, sprayed at 500 μM; for % WU 0 DAA AM*: 0 DAA a.m.; for % WU 0DAA PM: 0 DAA p.m.; for % WU 1DAA AM: 1 DAA a.m.; for % WU 1DAA PM: 1 DAA p.m.; for % WU 2 DAA AM: 2 DAA a.m.; for % WU 2 DAA PM: 2 DAA p.m. It counts as in vivo. On the procedure:
Compounds were tested for their effect on reducing plant water use as follows. Each compound was dissolved in a blank emulsifiable concentrate (EC) formulation that was then diluted to the desired concentration with water containing additional surfactant (EXTRAVON 1 g/20 L). The compounds were applied by foliar spray to 12 day old soybean plants (variety S20-G7) grown in controlled environment plant growth chambers. Plant water use during the day was assessed by repeated weighing of the pots in which the plants were grown before and after application of the compounds at the indicated times (expressed in days after application (DAA)). The water use data before application was used to correct any differences in water use arising due to non-treatment effects (e.g. due to differences in plant size). The untransformed water use values were subjected to an analysis of covariance, fitting the effect of treatment and using the baseline water use 1 day before application as a covariate.
The results are expressed compared to negative control treatment (diluted EC formulation without active ingredient but with EXTRAVON 1 g/20 L).
Application of the chemicals (0 DAA) takes place approximately between 08:00 and 09:30 a.m. WU is measured within day time (chamber light is on 06:00 to 20:00) at these timepoints: 0 DAA a.m. (10:30-12:50), 0 DAA p.m. (14:00-19:50), 1 DAA a.m. (7:30-12:50), 1 DAA p.m. (14:00-19:50), 2 DAA a.m. (07:30-12:50) and 2 DAA p.m. (14:00-19:50). The cumulative total WU (0-2.5 DAA) is calculated by summing the WU data mentioned above.

Setting [3] is: 0 h, water use during day time vs negative control, 0 DAA a.m. (10:30-12:50), read-out: % WU 0 DAA AM.
[4] abbreviates: 0 h, water use during day time vs negative control, 0 DAA p.m. (14:00-19:50), read-out: % WU 0DAA PM.
[5] abbreviates: 24 h, water use during day time vs negative control, 1 DAA a.m. (07:30-12:50), read-out: % WU 1DAA AM.
The mark [6] stands for this setting: 24 h, water use during day time vs negative control, 1 DAA p.m. (14:00-19:50), read-out: % WU 1DAA PM.
Setting [7] is: 48 h, water use during day time vs negative control, 2 DAA a.m. (07:30-12:50), read-out: % WU 2 DAA AM.
[8] abbreviates: 48 h, water use during day time vs negative control, 2 DAA p.m. (14:00-19:50), read-out: % WU 2 DAA PM.
The mark [9] stands for this setting: 60 h, cumulative total water use 0-2.5 DAA (sum of the time points) vs negative control, read-out: % WU Total 0 to 2.5 DAA.

Molecules are shown by their SMILES. Where two headings read alike, the source gives them in different places.

As to `CCCN1C(=O)CCc2cc(CNS(=O)(=O)CCCC(F)(F)F)ccc21` [Compound 3.020, 4,4,4-trifluoro-N-[(2-oxo-1-propyl-3,4-dihydroquinolin-6-yl)methyl]butane-1-sulfonamide], the change in vivo at 500 µM was -19.2% in assay [1] (setting [3]); -13.7% in assay [1] (setting [4]); -14.8% in assay [1] (setting [5]); -12.1% in assay [1] (setting [6]); -11.5% in assay [1] (setting [7]); -8.5% in assay [1] (setting [8]). The change in vivo at 500 µM in assay [1] (setting [9]) is -12.7%; in assay [2] (0 h, 0 DAA a.m. (10:30-12:50), read-out: % WU 0 DAA AM) it was -19.3%; in assay [2] (24 h, 1 DAA a.m. (7:30-12:50), read-out: % WU 1DAA AM), -10.1%; in assay [2] (24 h, 1 DAA p.m. (14:00-19:50), read-out: % WU 1DAA PM), -5.5%; in assay [2] (48 h, 2 DAA a.m. (07:30-12:50), read-out: % WU 2 DAA AM), -7.4%; in assay [2] (48 h, 2 DAA p.m. (14:00-19:50), read-out: % WU 2 DAA PM) it was -4.2%. In assay [2] (60 h, cumulative total WU (0-2.5 DAA), read-out: % WU Total 0 to 2.5 DAA), the change in vivo at 500 µM was -8.5%.
Take `CCCN1C(=O)CCc2cc(CNS(=O)(=O)/C=C/c3ccccc3F)ccc21` [Compound 3.056, (E)-2-(2-fluorophenyl)-N-[(2-oxo-1-propyl-3,4-dihydroquinolin-6-yl)methyl]ethenesulfonamide]: the change in vivo at 500 µM in assay [1] (setting [3]) is -8.4%; in assay [1] (setting [4]) it was -2.7%; in assay [1] (setting [5]), -5.6%; in assay [1] (setting [6]) it was -4.4%; in assay [1] (setting [7]), -4.7%; in assay [1] (setting [8]), -3.2%. Also, the change in vivo at 500 µM in assay [1] (setting [9]) was -4.6%.
Take `CCCN1C(=O)CCc2cc(CNS(=O)(=O)CCC)ccc21` [Compound 3.062, N-[(2-oxo-1-propyl-3,4-dihydroquinolin-6-yl)methyl]propane-1-sulfonamide]: the change in vivo at 500 µM in assay [1] (setting [3]) is -17.8%; in assay [1] (setting [4]), -13%; in assay [1] (setting [5]) it was -13%; in assay [1] (setting [6]) it was -9.8%; in assay [1] (setting [7]) it was -8.1%; in assay [1] (setting [8]), -6.3%. The change in vivo at 500 µM in assay [1] (setting [9]) is -10.5%.
`C/C=C/CS(=O)(=O)NCc1ccc2c(c1)CCC(=O)N2CCC` [Compound 3.066, (E)-N-[(2-oxo-1-propyl-3,4-dihydroquinolin-6-yl)methyl]but-2-ene-1-sulfonamide]: the change in vivo at 500 µM is -10.8% in assay [1] (setting [3]); -7.1% in assay [1] (setting [4]); -7.1% in assay [1] (setting [5]); -6.8% in assay [1] (setting [6]); -4.7% in assay [1] (setting [7]); -5.5% in assay [1] (setting [8]). Also, the change in vivo at 500 µM in assay [1] (setting [9]) was -6.4%.
Regarding `C=CCS(=O)(=O)NCc1ccc2c(c1)CCC(=O)N2CCC` [Compound 3.071, N-[(2-oxo-1-propyl-3,4-dihydroquinolin-6-yl)methyl]prop-2-ene-1-sulfonamide], the change in vivo at 500 µM is -11.2% in assay [1] (setting [3]); -6.5% in assay [1] (setting [4]); -4.5% in assay [1] (setting [5]); -4.7% in assay [1] (setting [6]); -3.5% in assay [1] (setting [7]); -2.4% in assay [1] (setting [8]). The change in vivo at 500 µM in assay [1] (setting [9]) was -4.9%.
For `CCCN1C(=O)CCc2cc(C3(NS(=O)(=O)c4ccc(F)cc4)CC3)ccc21` [Compound 15.009, 4-fluoro-N-[1-(2-oxo-1-propyl-3,4-dihydroquinolin-6-yl)cyclopropyl]benzenesulfonamide], the change in vivo at 500 µM is -10.7% in assay [1] (setting [3]); -7.8% in assay [1] (setting [4]); -8.7% in assay [1] (setting [5]); -5.8% in assay [1] (setting [6]); -5.4% in assay [1] (setting [7]); -5.7% in assay [1] (setting [8]). The change in vivo at 500 µM in assay [1] (setting [9]) is -7.1%.
As to `CCN1C(=O)CC(C)c2cc(CNS(=O)(=O)c3ccc(F)cc3F)ccc21` (stereo not shown) [Compound 20.006, N-[(1-ethyl-4-methyl-2-oxo-3,4-dihydroquinolin-6-yl)methyl]-2,4-difluoro-benzenesulfonamide], the change in vivo at 500 µM in assay [1] (setting [3]) is -15.5%; in assay [1] (setting [4]) it was -14.5%; in assay [1] (setting [5]) it was -13.2%; in assay [1] (setting [6]), -7%; in assay [1] (setting [7]), -5.7%; in assay [1] (setting [8]), -4.3%. In addition, the change in vivo at 500 µM in assay [1] (setting [9]) was -9.4%.
On to `CCCN1C(=O)CCc2cc(NS(=O)(=O)Cc3ccc(C)cc3)ccc21` [Quinabactin, quinabactin, reference compound], for which, in assay [2] (Table B2, rate 31.25 uM), the “% WU 0 DAA AM*” value is −0.3%, the “% WU 0DAA PM” value is on record as −0.3%, the “% WU 1DAA AM” value turned out to be 0.2% and the “% WU 1DAA PM” value is listed as −0.1%. Besides, in assay [2] (Table B2, rate 31.25 uM), the “% WU 2 DAA AM” value was −0.9% and the “% WU 2 DAA PM” value is −1.3%. The “% WU Total 0 to 2.5 DAA” value in assay [2] (Table B2, rate 31.25 uM, cumulative total WU (0-2.5 DAA)) is −0.7%. Further, in assay [2] (Table B2, rate 125 uM), the “% WU 0 DAA AM*” value was −15.3%, the “% WU 0DAA PM” value is listed as −5.7%, the “% WU 1DAA AM” value was 1.8% and the “% WU 1DAA PM” value is 2.9%. For the same compound, in assay [2] (Table B2, rate 125 uM), the “% WU 2 DAA AM” value was 2.4% and the “% WU 2 DAA PM” value stood at 1.1%. Further, the “% WU Total 0 to 2.5 DAA” value in assay [2] (Table B2, rate 125 uM, cumulative total WU (0-2.5 DAA)) was −0.5%. Moreover, in assay [2] (Table B2, rate 500 uM), the “% WU 0 DAA AM*” value is given as −42.0%, the “% WU 0DAA PM” value was −41.2%, the “% WU 1DAA AM” value was −18.6% and the “% WU 1DAA PM” value was −10.8%. Further, in assay [2] (Table B2, rate 500 uM), the “% WU 2 DAA AM” value is on record as −3.8% and the “% WU 2 DAA PM” value is on record as −2.9%. Besides, the “% WU Total 0 to 2.5 DAA” value in assay [2] (Table B2, rate 500 uM, cumulative total WU (0-2.5 DAA)) is −16.9%.
